{"source": "patent US20050059639A1", "about": "“Ophthalmic compositions and method for treating eye discomfort and pain” (priority 2003, published 2005)", "key": {"[1]": {"test_system": "tongue of human volunteers", "assay": "Cooling sensations when applied to the tongue of human volunteers", "type": "in vivo", "details": "for Duration of Action: duration of the cooling action on the tongue; for Relative Potency: reciprocal of threshold, normalized to unity for analogs with 1.25 μg/ml; for Threshold: threshold for producing cooling sensations on the tongue of human volunteers", "description": "(§1) The therapeutic concentrations of the preferred analogs are in the range of 10 to 80 μg/ml […], but concentrations as low as 0.1 μg/ml may elicit effects in sensitive individuals."}, "[2]": {"test_system": "medial canthus of the eyelids", "assay": "Sensory quality of the solution on the medial canthus of the eyelids / eye surface", "type": "in vivo, human", "details": "solution applied on the medial canthus of the eyelids", "excerpt": "[table] In selecting a particular analog, it is desirable to have one that has a long duration of action (several hours) and minimal stinging and burning sensations. These parameters are not predicted by the cooling effect of these substances on the human tongue, but must be determined by experiment. […] Thus, the hexyl analog is the preferred therapeutic of the two. The other particularly preferred analogs that have the desired qualities of long duration of action and absence of stinging and burning effects are identified with an asterisk in Table 1."}, "[3]": {"test_system": "eye disorders", "assay": "Estimate of ideal therapeutic eye drop concentration to relieve eye disorders", "type": "in vivo, human", "details": "estimate of ideal therapeutic concentration applied as eye drops to relieve eye disorders", "description": "as §1\nThe potency of certain specific trialkyl phosphine oxides, e.g. isopropyl, sec-butyl, n-octyl-phosphine oxide, in relieving eye discomfort is exceptionally high, on the order of 0.001%. In such situations, an alternative preferred description of an effective unit dose is 0.01 mg/ml or 10 μg/ml, which is equivalent to 0.001% weight percent."}, "[4]": {"test_system": "conjunctivitis", "assay": "Eye drops in subjects with allergic conjunctivitis", "type": "in vivo, human", "details": "for stinging sensations: 0.1% solution, medial canthus/closed eye, about every 8 hours", "excerpt": "A subject, suffered from seasonal allergy. During the months of March through May, they would wake up in the morning sneezing, with a runny nose, and itchy eyes. The rhinitis, nasal congestion and obstruction were relieved to some extent by taking a Claritin® antihistamine tablet, but the symptoms of itchy, tearing, and red eyes were not. This individual applied, by the medial canthus/closed eye method in which they had been instructed, several drops of a 0.1% solution disec-butyl-n-pentyl-phosphine oxide ophthalmic eye drop solution, into each eye about every 8 hours for two days. […] They felt more clear-sighted and vigilant, and was of the opinion that the eye drops had therapeutic value for their conjunctivitis. Similar results were obtained with 3 additional subjects suffering from ocular allergies. A subject, suffered from perennial rhinitis that was aggravated by sinusitis, nasal surgery, and a prolonged course of antibiotics. They developed a generalized allergic condition with severe itchy rash on their back, dermatitis on their face (especially on their cheeks), and had itchy, puffy and red eyes. This individual applied, by the medial canthus/closed eye method in which they had been instructed, several drops of a 0.1% solution disec-butyl-pentyl-phosphine oxide ophthalmic solution into each eye for about every 8 hours for three days. […] The subject was of the opinion that the eye drops had therapeutic value for their conjunctivitis."}, "[5]": {"test_system": "opened eyes of volunteers", "assay": "Eye drops applied directly to the opened eyes of volunteers", "type": "in vivo, human", "description": "(§2) For trialkyl phosphine oxide eye drop solutions of this invention, I have discovered an indirect method of application as follows. The eye dropper is aimed at the medial canthus (nasal corner) of the eye, the eye is then closed, the dispenser is squeezed to emit the eye drops, and the eye kept closed for about 1 min. This method of application can substantially avoid stinging and burning sensations. Apparently, the adaptation period of about 1 min allows the sensory processes to develop tolerance to the initial stinging and burning stimuli. For example, if a 0.4 mg/ml solution of disec-butyl, n-hexyl-phosphine oxide [synonym, 1-(Di-sec-butyl-phosphinoyl)-hexane] in isotonic-buffered saline is dropped on the open eye, it causes stinging and burning for about 1 min. However, applied onto the corners of the eye, with the eyes closed for 1 min, these stinging and burning sensations are avoided. The medial canthus is preferred to the lateral canthus because the geometry of the orbit permits a longer residence time for the eye drop applied to the medial corner. Drops applied to the lateral canthus are less precisely located and rapidly dribble off the zygoma (cheekbone). A user can be instructed in this indirect method by including the instructions on packaging labels and/or inserts associated with the doses.\nA 0.05% (0.5 mg/ml) disec-butyl-n-hexyl-phosphine oxide eye drop solution was prepared by adding the compound to an isotonic solution of sodium chloride, 0.65% in deionized water, monobasic potassium phosphate/sodium hydroxide buffer, preserved with disodium EDTA and benzalkonium chloride. The liquid was individually aliquoted into a ¼ oz. bottle with a Yorker spout (E.D. Luce Packaging) suitable for droplet delivery. This solution was applied to the opened eyes of three volunteers, with two to three drops of the solution applied to each eye. The subjects complained of stinging and burning sensations on the eye surface, lasting for about 2 min and requiring the subjects to shut their eyes. […]"}, "[6]": {"test_system": "closed eyes of volunteers", "assay": "Eye drops applied to medial canthus of closed eyes, kept closed about 1 min", "type": "in vivo, human", "description": "as §2\nThe solution, as in Example 1, was then used by another three subjects with the instruction to apply the droplets to the nasal corner of the eye (medial canthus), without touching the tip of the dispenser to the eyelid surface, to let the solution seep into the eyelids and eye surface but to keep eyes closed for at least one minute. The subjects reported slight sensations of stinging when the eyes were opened, effects that lasted for less than 1 minute, followed by sensations of coolness and comfort lasting at least two hours. The experiment was then repeated, but with a higher concentration of 0.2% of disec-butyl-n-hexyl-phosphine oxide.\n(§3) A 0.2% (2.0 mg/ml) disec-butyl-n-heptyl-phosphine oxide eye drop solution was prepared by adding the compound to an isotonic solution of sodium chloride, 0.65% in deionized water, monobasic potassium phosphate/sodium hydroxide buffer, preserved with disodium EDTA and benzalkonium chloride. The liquid was individually aliquoted into a ¼ oz. bottle with a Yorker spout (E.D. Luce Packaging) suitable for droplet delivery. This solution was then applied to the closed eyes of three volunteers, with two to three drops of the solution applied to each eye. The subjects complained of stinging and burning sensations on the eye surface, lasting for about 2 min. A series of six solutions were then prepared in which six different hydrocarbon polyols were added to the parent 0.2% solution. The individual additions were 1.5% sucrose, 1.5% fructose, 1.5% dextrose, 1.5% lactose, 1.5% inositol, or 0.5% carboxymethylcellulose. […] There was some tearing, but no evidence of increased eye redness from the hydrocarbon polyols and subjective complaints of discomfort were minimal."}, "[7]": {"test_system": "skin of upper eyes", "assay": "Application to skin of the upper eyes by swabstick (eye strain, contact lens user)", "type": "in vivo, human", "description": "Another modification of drug delivery was discovered. […] Example 4 notes that topical application of a 5% solution of a trialkyl phosphine oxide dissolved in pure propylene glycol produces robust cooling when applied in this manner.\nA subject was stuck in traffic for over 2 hours on a hot and sunny (95° to 97° F.) day in an old car without air-conditioning. They were a user of soft contact lenses. […] They wanted to go on-line to work on a database project, but their eyestrain hindered their ability to focus. They volunteered to apply onto the skin of their upper eyes a 5% solution of disec-butyl-n-hexyl-phosphine oxide dissolved in 100% propylene glycol. A cotton swabstick was used to dab the solution onto the surfaces of the skin with extra care not touch the margins of the eyelids or eye surface. After drug application, a robust cooling sensation developed in the eyes that lasted for about 3 hours. […] They also reported that they felt more alert and energetic."}, "[8]": {"test_system": "dry eyes", "assay": "Eye drops in contact lens user with dry eyes", "type": "in vivo, human", "details": "0.2% solution with 0.5% carboxymethylcellulose", "excerpt": "The subject of example 4 is a daily user of disposable soft contact lenses, has “dry eyes”, and is a constant user of Refresh Eyes®, an artificial tears solution with 0.5% carboxymethylcellulose stored in a unit dispenser. They were instructed on how to instill the eye drops into the nasal corner (medial canthus) of their closed eyes and how to avoid the initial discomforts of the solution. The subject, who is an internationally-ranked tennis player, volunteered to self-administer, by the medial canthus/closed eye method, a 0.2% solution disec-butyl-n-hexyl-phosphine oxide ophthalmic solution containing 0.5% carboxymethylcellulose."}, "[9]": {"test_system": "ocular pain", "assay": "Eye drops for ocular pain after refractive eye surgery (LASIK)", "type": "in vivo, human", "excerpt": "A subject, underwent bilateral refractive eye surgery (LASIK) for myopia in order to maintain their qualifications for special duties in the military. On the first day after surgery their eye surfaces and eyelids were bright red from dilated and enlarged blood vessels, but there was little pain. However, on the second day, the individual suffered excruciating pain from their eyes that was incapacitating and prevented them from going to work. This individual volunteered to apply eye drops of a 0.05% solution disec-butyl-n-hexyl-phosphine oxide ophthalamic into each eye for about every 6 hours for three days. They were instructed on how to instill the eye drops into the nasal corner (medial canthus) of their closed eyes and how to avoid the initial discomforts of the solution. […] They felt much better and was of the opinion that the eye drops had therapeutic value for ocular pain."}, "[10]": {"test_system": "stinging and burning sensations on the eye", "assay": "Adjuncts to reduce stinging of trialkyl phosphine oxide eye drops", "type": "in vivo, human", "details": "in vivo", "description": "I conclude that hydrocarbon polyols are useful adjuncts for preparing a therapeutic formulation of a trialkyl phosphine oxide eye drop solution.\nas §3"}, "[11]": {"test_system": "stinging and burning sensations on the eye", "assay": "Adjuncts to reduce stinging of trialkyl phosphine oxide eye drops", "type": "in vivo, human", "details": "in vivo", "remark": "listed apart in the source"}, "[12]": {"details": "0.1% solution every 8 hours for two days, seasonal allergy"}, "[13]": {"details": "0.2% solution, medial canthus/closed eye"}}, "note": "Marks after values point to notes of the source that are not given here."}
{"compound": "CCCCCP(=O)(C(C)CC)C(C)CC", "note": "(centres unmarked) [n-C5H11 / sec-C4H9 / sec-C4H9, disec-butyl-n-pentyl-phosphine oxide]", "values": [{"measurement": "Duration of Action", "setting": "[1]", "value": 10, "unit": "min"}, {"measurement": "Relative Potency", "setting": "[1]", "value": 1}, {"measurement": "Threshold", "setting": "[1]", "value": 1.25, "unit": "µg/mL"}, {"measurement": "Sensory Quality", "setting": "[2]", "value": "cool only"}, {"measurement": "Eye Therapy", "setting": "[3]", "value": "60* μg/ml"}, {"measurement": "effect on eye discomfort", "setting": "[4]; 0.1% solution every 8 hours for three days, generalized allergic condition", "value": "relief of discomfort"}, {"measurement": "itching", "setting": "[4]; [12]", "value": "substantially reduced"}, {"measurement": "redness", "setting": "[4]; [12]", "value": "diminished"}, {"measurement": "stinging sensations", "setting": "[4]", "value": "initial mild sensation of “stinging”"}, {"measurement": "stinging sensations", "setting": "[4]; listed as disec-butyl-pentyl-phosphine oxide", "value": "No significant stinging sensations"}]}
{"compound": "CCCCCCP(=O)(C(C)CC)C(C)CC", "note": "(centres unmarked) [n-C6H13 / sec-C4H9 / sec-C4H9, 1-(Di-sec-butyl-phosphinoyl)-hexane]", "values": [{"measurement": "Duration of Action", "setting": "[1]", "value": 20, "unit": "min"}, {"measurement": "potency on the human tongue (comparison of the two analogs)", "setting": "[1]; hexyl vs heptyl analog", "value": "about equipotent"}, {"measurement": "Relative Potency", "setting": "[1]", "value": 1}, {"measurement": "Threshold", "setting": "[1]", "value": 1.25, "unit": "µg/mL"}, {"measurement": "Sensory Quality", "setting": "[2]", "value": "cool/sting"}, {"measurement": "Eye Therapy", "setting": "[3]", "value": 45, "unit": "µg/mL"}, {"measurement": "duration of stinging and burning", "setting": "[5]; 0.4 mg/ml in isotonic-buffered saline dropped on the open eye", "value": "about 1 min"}, {"measurement": "duration of stinging and burning sensations on the eye surface", "setting": "[5]; 0.05% (0.5 mg/ml) solution, 2-3 drops, opened eyes, three volunteers", "value": "about 2 min"}, {"measurement": "redness / vasodilatation on eye surface or eyelids", "setting": "[5]; 0.05% solution, opened eyes", "value": "no evidence of increased redness"}, {"measurement": "stinging and burning sensations", "setting": "[6]; 0.4 mg/ml applied onto corners of the eye, eyes closed for 1 min", "value": "avoided"}, {"measurement": "duration of slight stinging when eyes were opened", "setting": "[6]; 0.05% solution, medial canthus, eyes closed at least one minute, three subjects", "value": "less than 1 minute"}, {"measurement": "duration of sensations of coolness and comfort", "setting": "[6]; 0.05% solution, medial canthus/closed eye", "value": "at least two"}, {"measurement": "sensations of stinging and burning vs 0.05%", "setting": "[6]; [13]", "value": "slightly increased"}, {"measurement": "tearing, irritation or redness", "setting": "[6]; [13]", "value": "no signs of tearing was observed, nor of signs of irritation or redness"}, {"measurement": "duration of robust cooling sensation in the eyes", "setting": "[7]; 5% solution in 100% propylene glycol dabbed on skin of upper eyes, one subject", "value": "about 3 hours"}, {"measurement": "effect on eye fatigue, irritation and discomfort", "setting": "[7]; 5% solution in 100% propylene glycol on skin of upper eyes", "value": "alleviated their sense of eye fatigue, irritation, and discomfort"}, {"measurement": "effect on eye dryness (subject's opinion)", "setting": "[8]", "value": "useful to alleviate eye dryness"}, {"measurement": "tearing", "setting": "[8]", "value": "no increased tearing"}, {"measurement": "reported sensations", "setting": "[8]; medial canthus/closed eye, one subject", "value": "slight tingling in their eyelids followed by refreshing sensations in their eyelids and eye surface"}, {"measurement": "adverse effects", "setting": "[9]; 0.05% solution about every 6 hours for three days after LASIK", "value": "no significant adverse effects"}, {"measurement": "acute pain from the eye surface", "setting": "[9]; 0.05% solution about every 6 hours for three days, second day after LASIK, medial canthus/closed eye", "value": "significantly diminished within minutes"}]}
{"compound": "OC[C@H]1O[C@@](CO)(O[C@H]2O[C@H](CO)[C@@H](O)[C@H](O)[C@H]2O)[C@@H](O)[C@@H]1O", "note": "[sucrose]", "values": [{"measurement": "effect of adjunct on initial stinging sensations", "setting": "[10]", "value": "reduce the initial stinging sensations"}, {"measurement": "effect of adjunct on stinging and burning sensations of several trialkyl phosphine oxide solutions", "setting": "[11]", "value": "substantially reduced"}]}
{"compound": "carboxymethylcellulose", "values": [{"measurement": "effect of adjunct on initial stinging sensations", "setting": "[10]", "value": "reduce the initial stinging sensations"}, {"measurement": "effect of adjunct on stinging and burning sensations of several trialkyl phosphine oxide solutions", "setting": "[11]", "value": "substantially reduced"}]}
